Source: article PMC7114187 (Antiviral Research, 2008)
Structures can show the parent of a compound that is named as a salt. Where two headings read alike, the source gives them in different places.

What was measured:
influenza viruses = assay: microbe, parasite or virus in culture; type: cell-based, influenza virus; conditions: for inhibition at 10 µM: read-out: inhibition of CPE at 10 μM
[1] = test system: influenza neuraminidase (NA), inactivated viral suspensions of influenza A/Udorn/72 (H3N2); type: biochemical
[2] = test system: influenza A/WSN/33 (H1N1); type: cell-based
[3] = molecular target: influenza A/WSN/33 (H1N1) polymerase complex (PA, PB1, PB2, NP) (Influenza A virus, UniProt P03427+P03430+P15659); type: cell-based
SARS-CoV = conditions: cited from earlier work
in vitro = conditions: dog
[4] = molecular target: NA in inactivated viral suspension of influenza A/Udorn/72 (H3N2) (Influenza A virus (H3N2), UniProt P0DOF6); type: biochemical; conditions: read-out: IC50 NA inhibition
[5] = test system: influenza A/Udorn/72 (H3N2); assay: microbe, parasite or virus in culture; type: cell-based; conditions: read-out: EC50 viral plaque formation
[6] = test system: influenza A/WSN/33 (H1N1); assay: microbe, parasite or virus in culture; type: cell-based; conditions: read-out: EC50 viral plaque formation
NIBRG-14 (H5N1) = assay: microbe, parasite or virus in culture; type: cell-based, influenza NIBRG-14 (H5N1); conditions: read-out: EC50 viral plaque formation
[7] = unidentified influenza virus, MDCK, 72 h, read-out: CPE inhibition IC50 (<10 μM)
[8] = unidentified influenza virus, MDCK
[9] = read-out: CPE inhibition IC50 (<10 μM), symbol

Structure (SMILES): O=C(O)C1=CC(=C(c2ccc(O)c(C(=O)O)c2)c2ccc(O)c(C(=O)O)c2)C=CC1=O [ATA, aurintricarboxylic acid]
- IC50 (influenza viruses; [7]): 9.4 µM
- inhibition at 10 µM (influenza viruses; [8]): > 50%
- NA activity inhibition at 50 μM (%) [1]: 100.0%
- reduction of the viral yield [2]: > 1000 fold
- reduction of the yield of influenza progeny virus [2]: only marginal activity
- inhibition of RdRp-derived expression of CAT [3]: did not inhibit
- EC50 for SARS-CoV (SARS-CoV): 200 µg/mL
- CC50 (in vitro): 95.5 µM
- IC50 [4]: 13.8 µM
- EC50 ([5]; Influenza A virus, H3N2, MDCK): 6.3 µM
- EC50 ([6]; Influenza A virus, H1N1|WSN, MDCK): 4.1 µM
- EC50 (NIBRG-14 (H5N1); Influenza A virus, H5N1, MDCK): 5.4 µM

Structure (SMILES): N#Cc1c(Cl)c(Cl)c(Cl)c(C#N)c1Cl [Tetrachloroisophthalonitrile]
- IC50 (influenza viruses; [9]): > 10 µM
- NA activity inhibition at 50 μM (%) [1]: 76.9%

Structure (SMILES): CC(=O)[C@@]1(O)CC[C@H]2[C@@H]3C=C(Cl)C4=CC(=O)[C@@H]5C[C@@H]5[C@]4(C)[C@H]3CC[C@@]21C [Cyproterone]
- IC50 (influenza viruses; [9]): > 10 µM
- NA activity inhibition at 50 μM (%) [1]: 55.7%

Structure (SMILES): CCOC(=O)C1=C(O)C(=O)N(Cc2ccccc2)C1 [Ethyl1-benzyl-3-hydroxy-2-oxo(5H)pyrrole-4-carboxylate]
- NA activity inhibition at 50 μM (%) [1]: 71.9%

Structure (SMILES): O=C(O[C@@H]1Cc2c(O)cc(O)cc2O[C@@H]1c1cc(O)c(O)c(O)c1-c1c([C@H]2Oc3cc(O)cc(O)c3C[C@H]2OC(=O)c2cc(O)c(O)c(O)c2)cc(O)c(O)c1O)c1cc(O)c(O)c(O)c1 [2′2′-Bisepigallocatechin digallate]
- IC50 (influenza viruses; [9]): > 10 µM
- NA activity inhibition at 50 μM (%) [1]: 60.6%
- CC50 (MDCK cells): > 50 µM

Structure (SMILES): CO[C@H]1C[C@H](O[C@H]2CC[C@]3(C)[C@H]4CC[C@]5(C)[C@@H](C6=CC(=O)OC6)CC[C@]5(O)[C@@H]4CC[C@]3(O)C2)O[C@H](C)[C@H]1O [Periplocymarin]
- IC50 (influenza viruses; [7]): 0.3 µM
- inhibition at 10 µM (influenza viruses; [8]): > 50%
- NA activity inhibition at 50 μM (%) [1]: 75.2%
- CC50 (in vitro): < 50 µM

Structure (SMILES): CCC(CC)O[C@@H]1C=C(C(=O)O)C[C@H](N)[C@H]1NC(C)=O [GS4071, Oseltamivir carboxylate]
- IC50 (influenza viruses; read-out: CPE inhibition IC50 (<10 μM)): 0.1 µM
- NA activity inhibition at 50 μM (%) [1]: 100.0%
- reduction in the yield of progeny virus [2]: no reduction
- reduction of the viral yield [2]: effective to reduce the viral yield
- CC50 (in vitro): > 25 µM
- EC50 [5]: ~0.04 µM
- EC50 [6]: ~0.04 µM

Structure (SMILES): COc1ccc(-c2cc(=O)c3c(O)cc(O)cc3o2)cc1O [Diosmetin]
- NA activity inhibition at 50 μM (%) [1]: 59.0%

Structure (SMILES): CCc1ccc2c(O)c3c(cc2c1C(=O)OC)C(=O)c1c(O)ccc(O)c1C3=O [Bisanhydrorutilantinone]
- NA activity inhibition at 50 μM (%) [1]: 71.9%

Structure (SMILES): C1CNCCN1 [Piperazine]
- NA activity inhibition at 50 μM (%) [1]: 100.0%

Structure (SMILES): O=C(O)c1cc(O)c2c(c1)[C@H]([C@H]1c3cc(C(=O)O)cc(O)c3C(=O)c3c(O[C@@H]4O[C@H](CO)[C@@H](O)[C@H](O)[C@H]4O)cccc31)c1cccc(O[C@@H]3O[C@H](CO)[C@@H](O)[C@H](O)[C@H]3O)c1C2=O [Sennoside A]
- NA activity inhibition at 50 μM (%) [1]: 61.9%

Structure (SMILES): O=C(/C=C/c1ccc(O)cc1)c1ccc(O)cc1O [Isoliquiritigenin]
- NA activity inhibition at 50 μM (%) [1]: 62.6%

Structure (SMILES): CCCc1ncc(C[n+]2ccccc2C)c(N)n1 [Amprolium]
- NA activity inhibition at 50 μM (%) [1]: 95.0%

Structure (SMILES): O=C(O[C@@H]1Cc2c(O)cc(O)cc2O[C@@H]1c1cc(O)c(=O)c2c(O)c(O)cc([C@H]3Oc4cc(O)cc(O)c4C[C@H]3OC(=O)c3cc(O)c(O)c(O)c3)c2c1)c1cc(O)c(O)c(O)c1 [Theaflavin digallate]
- NA activity inhibition at 50 μM (%) [1]: 61.5%

Structure (SMILES): Cc1cc(=O)c2c(o1)-c1c(cc(O)c(O)c1C(=O)O)OC2 [Citromycetin]
- IC50 (influenza viruses; [9]): > 10 µM
- NA activity inhibition at 50 μM (%) [1]: 46.8%

Structure (SMILES): O=c1c(O)c(-c2cc(O)c(O)c(O)c2)oc2cc(O)cc(O)c12 [Myricetin]
- NA activity inhibition at 50 μM (%) [1]: 61.6%

Structure (SMILES): CC(=O)N1CCN(c2ccc(OCC3COC(Cn4ccnc4)(c4ccc(Cl)cc4Cl)O3)cc2)CC1 (stereo not drawn) [Ketoconazole]
- NA activity inhibition at 50 μM (%) [1]: 72.2%

Structure (SMILES): Cc1cnc(NC(=O)C2=C(O)c3ccccc3S(=O)(=O)N2C)s1 [Meloxicam]
- NA activity inhibition at 50 μM (%) [1]: 62.1%

Structure (SMILES): CC1(C)OCC(C2OC(=O)C(O)=C2O)O1 (stereo not drawn) [Ascorbic acid acetonide]
- IC50 (influenza viruses; [9]): > 10 µM
- NA activity inhibition at 50 μM (%) [1]: 83.5%

Structure (SMILES): COC(=O)C(N)CS (stereo not drawn) [Mecysteine hydrochloride]
- NA activity inhibition at 50 μM (%) [1]: 51.3%

Structure (SMILES): S=C=NCc1ccccc1 [Benzyl isothiocyanate]
- NA activity inhibition at 50 μM (%) [1]: 75.5%
